Data as given in patent US20250144067A1, “PERSONALIZED STARVATION THERAPY FOR CANCER” (Faeth Therapeutics, Inc., priority 2021, published 2025).
Structures can show the parent of a compound that is named as a salt. Where two headings read alike, the source gives them in different places. Square brackets hold non-standard residues; d marks the D form. Peptide text beside a SMILES is read from it. * marks the point of attachment. dPhe(4-NHCONH2) = NC(=O)Nc1ccc(C[C@@H](N)C(=O)O)cc1; Dihydroorotyl(S) = O=C1C[C@@H](C(=O)*)NC(=O)N1; dPhe(4-Cl) = N[C@H](Cc1ccc(Cl)cc1)C(=O)O; Phe(4-NH2) = Nc1ccc(C[C@H](N)C(=O)O)cc1; d2Nal = N[C@H](Cc1ccc2ccccc2c1)C(=O)O; Lys(iPr) = CC(C)NCCCC[C@H](N)C(=O)O; d3Pal = N[C@H](Cc1cccnc1)C(=O)O

Assays:
[1] = tested on: NCI-H292 lung cancer cells; test: FDA drug screening, complete media vs cholesterol-free media with simvastatin (TABLE 2); type: cell-based, human
[2] = tested on: NCI-H292 lung cancer cells; test: FDA drug screening, complete media vs cholesterol-free media without statin (TABLE 1); type: cell-based, human
[3] = NCI-H292 cells, FDA drug library screen, cholesterol-free media with simvastatin 0.04 μM
[4] = NCI-H292 cells, FDA drug library screen, complete media
[5] = complete media minus cholesterol-free media + simvastatin, >0 enhanced anti-cancer activity, about 0 neutral, <0 antagonist
[6] = NCI-H292 cells in cholesterol-free media without statin
[7] = NCI-H292 cells in complete media
[8] = complete media minus cholesterol-free media + simvastatin, […]
[9] = NCI-H292 cells, cholesterol-free media without statin
[10] = complete vs cholesterol-free media, […]
[11] = complete media vs cholesterol-free media + simvastatin (0.04 μM), >0 enhanced anti-cancer activity, about 0 neutral, <0 antagonist
[12] = Complete minus Cholesterol-free, greater than 0 enhanced anti-cancer activity, about 0 neutral, below 0 antagonist
[13] = NCI-H292 cells, FDA drug library screen, cholesterol-free media without statin
[14] = NCI-H292 cells, cholesterol-free media with simvastatin 0.04 μM, cell growth value in FDA drug screen
[15] = NCI-H292 cells, complete media, cell growth value in FDA drug screen
[16] = Complete minus Cholesterol-free, >0 enhanced anti-cancer activity, about 0 neutral, <0 antagonist
[17] = NCI-H292 cells, cholesterol-free media with simvastatin 0.04 μM, FDA drug library screen (TABLE 2)
[18] = NCI-H292 cells, complete media, FDA drug library screen (TABLE 2)
[19] = complete media minus cholesterol-free media + simvastatin (0.04 μM), >0 enhanced anti-cancer activity, about 0 neutral, <0 antagonist
[20] = complete vs cholesterol-free media, greater than 0 enhanced anti-cancer activity, about 0 neutral, below 0 antagonists
[21] = complete media minus cholesterol-free media + simvastatin (0.04 μM), […]
[22] = Complete minus Cholesterol-free, […]
[23] = NCI-H292 cells, cholesterol-free media without statin, FDA drug library screen
[24] = NCI-H292 cells, complete media, FDA drug library screen
[25] = complete media vs cholesterol-free media + simvastatin (0.04 μM), […]
[26] = NCI-H292 cells, cholesterol-free media with simvastatin 0.04 μM, […]
[27] = NCI-H292 cells, complete media, […]
[28] = NCI-H292 cells, drug in cholesterol-free media with simvastatin 0.04 μM
[29] = NCI-H292 cells, drug in complete media

Nc1ccc(S(=O)(=O)c2ccc(N)cc2)cc1 [Dapsone]
Cholesterol-free media + simvastatin (0.04 μM) [1, 3]: 0.9689
Complete Media [1, 4]: 1.132
Difference [1, 5]: 0.16
Difference ([2]; Complete minus Cholesterol-free, greater than 0 enhanced anti-cancer activity, about 0 neutral, below 0 antagonists): −0.48
Cholesterol-free [2, 6]: 1.475
Complete [2, 7]: 0.9984

CCCCCCCCCC(=O)N[C@@H](Cc1c[nH]c2ccccc12)C(=O)N[C@H](CC(N)=O)C(=O)N[C@@H](CC(=O)O)C(=O)N[C@@H]1C(=O)NCC(=O)N[C@@H](CCCN)C(=O)N[C@@H](CC(=O)O)C(=O)N[C@H](C)C(=O)N[C@@H](CC(=O)O)C(=O)NCC(=O)N[C@H](CO)C(=O)N[C@@H]([C@H](C)CC(=O)O)C(=O)N[C@@H](CC(=O)c2ccccc2N)C(=O)O[C@@H]1C [Daptomycin]
Cholesterol-free media + simvastatin (0.04 μM) [1, 3]: 1.147
Complete Media [1, 4]: 1.33
Difference [1, 8]: 0.18
Cholesterol-free [2, 9]: 1.025
Complete ([2]; NCI-H292 cells, complete media): 0.6476
Difference [2, 10]: −0.38

NC(=O)C(c1ccccc1)(c1ccccc1)[C@@H]1CCN(CCc2ccc3c(c2)CCO3)C1 [Darifenacin (hydrobromide)]
Cholesterol-free media + simvastatin (0.04 μM) [1, 3]: 1.197
Complete Media [1, 4]: 1.073
Difference [1, 11]: −0.12
Difference [2, 12]: −0.11
Cholesterol-free [2, 13]: 1.186
Complete [2, 4]: 1.075

CC(O)c1cc(C(=O)N[C@@H](C)Cn2ccc(-c3ccc(C#N)c(Cl)c3)n2)[nH]n1 (some centres unmarked) [Darolutamide]
Cholesterol-free media + simvastatin (0.04 μM) [1, 14]: 0.9075
Complete Media [1, 15]: 0.9966
Difference [1, 5]: 0.09
Difference [2, 16]: −0.20
Cholesterol-free [2, 9]: 1.263
Complete ([2]; NCI-H292 cells, complete media): 1.061

CC(C)CN(C[C@@H](O)[C@H](Cc1ccccc1)NC(=O)O[C@H]1CO[C@H]2OCC[C@H]21)S(=O)(=O)c1ccc(N)cc1 [Darunavir (Ethanolate)]
Cholesterol-free media + simvastatin (0.04 μM) [1]: 1.545
Complete Media [1]: 1.286
Difference [1]: −0.26
Cholesterol-free [2]: 0.8952
Difference [2]: 0.25

CC(C)CN(C[C@@H](O)[C@H](Cc1ccccc1)NC(=O)O[C@H]1CO[C@H]2OCC[C@H]21)S(=O)(=O)c1ccc(N)cc1 [Darunavir]
Cholesterol-free media + simvastatin (0.04 μM) [1]: 0.9174
Complete Media [1]: 0.7724
Difference [1]: −0.14
Cholesterol-free [2]: 1.103
Complete [2]: 0.8067
Difference [2]: −0.30

COc1c(-c2ccc3cc(NS(C)(=O)=O)ccc3c2)cc(-n2ccc(=O)[nH]c2=O)cc1C(C)(C)C [Dasabuvir]
Cholesterol-free media + simvastatin (0.04 μM) [1, 17]: 1.1
Complete Media [1, 18]: 1.064
Difference [1, 19]: −0.04
Cholesterol-free [2, 9]: 1.225
Complete ([2]; NCI-H292 cells, complete media): 0.8287
Difference [2, 20]: −0.40

Cc1nc(Nc2ncc(C(=O)Nc3c(C)cccc3Cl)s2)cc(N2CCN(CCO)CC2)n1 [Dasatinib (hydrochloride)]
Cholesterol-free media + simvastatin (0.04 μM) [1, 17]: 0.2818
Complete Media [1, 18]: 0.268
Difference [1, 19]: −0.01
Difference [2, 12]: −0.10
Cholesterol-free [2, 13]: 0.3831
Complete [2, 4]: 0.2841

Cc1nc(Nc2ncc(C(=O)Nc3c(C)cccc3Cl)s2)cc(N2CCN(CCO)CC2)n1 [Dasatinib]
Cholesterol-free media + simvastatin (0.04 μM) [1, 3]: 0.3286
Complete Media [1, 4]: 0.514
Difference [1, 5]: 0.19
Difference [2, 12]: −0.15
Cholesterol-free [2, 13]: 0.4806
Complete [2, 4]: 0.3333

COc1cccc2c1C(=O)c1c(O)c3c(c(O)c1C2=O)C[C@@](O)(C(C)=O)C[C@@H]3O[C@H]1C[C@H](N)[C@H](O)[C@H](C)O1 [Daunorubicin (Hydrochloride)]
Cholesterol-free media + simvastatin (0.04 μM) [1, 17]: 0.006543
Complete Media [1, 18]: −0.007495
Difference [1, 21]: −0.01
Difference [2, 22]: −0.01
Cholesterol-free [2, 23]: 0.01433
Complete [2, 24]: 0.008412

CC[C@H]1OC(=O)[C@H](C)[C@@H](O[C@H]2C[C@@](C)(OC)[C@@H](O)[C@H](C)O2)[C@H](C)[C@@H](O[C@@H]2O[C@H](C)C[C@H](N(C)C)[C@H]2O)[C@](C)(O)C[C@@H](C)C(=O)[C@H](C)[C@H]2OC(=O)O[C@@]21C [Davercin]
Cholesterol-free media + simvastatin (0.04 μM) [1, 3]: 1.064
Complete Media [1, 4]: 0.9657
Difference [1, 25]: −0.10
Cholesterol-free [2, 23]: 0.5403
Complete [2, 24]: 0.9622
Difference [2, 10]: 0.42

C[N+](C)(C)CCCCCCCCCC[N+](C)(C)C.[Br-].[Br-] [Decamethonium (Bromide)]
Cholesterol-free media + simvastatin (0.04 μM) [1]: 1.129
Complete Media [1]: 0.9457
Difference [1]: −0.18
Cholesterol-free [2]: 1.121
Complete [2]: 0.9062
Difference [2]: −0.21

Nc1ncn([C@H]2C[C@H](O)[C@@H](CO)O2)c(=O)n1 [Decitabine]
Cholesterol-free media + simvastatin (0.04 μM) [1, 14]: 0.7335
Complete Media [1, 15]: 0.7733
Difference [1, 5]: 0.04
Difference [2, 16]: −0.25
Cholesterol-free [2, 9]: 0.8074
Complete ([2]; NCI-H292 cells, complete media): 0.559

Cl.Cl.OCCOCCN1CCN(C(c2ccccc2)c2ccccc2)CC1 [Decloxizine (dihydrochloride)]
Cholesterol-free media + simvastatin (0.04 μM) [1, 26]: 0.9553
Complete Media [1, 27]: 1.042
Difference [1, 8]: 0.09
Difference [2, 22]: −0.22
Cholesterol-free [2, 9]: 1.186
Complete ([2]; NCI-H292 cells, complete media): 0.9687

O=C(O)c1ccc(-n2nc(-c3ccccc3O)nc2-c2ccccc2O)cc1 [Deferasirox]
Cholesterol-free media + simvastatin (0.04 μM) [1, 28]: 1.22
Complete Media [1, 29]: 0.9596
Difference [1, 11]: −0.26
Cholesterol-free [2, 9]: 1.441
Complete ([2]; NCI-H292 cells, complete media): 0.9894
Difference [2, 20]: −0.45

Cc1c(O)c(=O)ccn1C [Deferiprone]
Cholesterol-free media + simvastatin (0.04 μM) [1, 17]: 1.047
Complete Media [1, 18]: 1.061
Difference [1, 19]: 0.01
Cholesterol-free [2, 9]: 1.443
Complete ([2]; NCI-H292 cells, complete media): 1.044
Difference [2, 20]: −0.40

CC(=O)OCC(=O)[C@@]12N=C(C)O[C@@H]1C[C@H]1[C@@H]3CCC4=CC(=O)C=C[C@]4(C)[C@H]3[C@@H](O)C[C@@]12C [Deflazacort]
Cholesterol-free media + simvastatin (0.04 μM) [1, 17]: 0.6257
Complete Media [1, 18]: 0.5899
Difference [1, 19]: −0.04
Cholesterol-free [2, 23]: 0.629
Complete [2, 24]: 0.7651
Difference ([2]; complete vs cholesterol-free media, >0 enhanced anti-cancer activity, about 0 neutral, <0 antagonist): 0.14

CC(=O)N[C@H](Cc1ccc2ccccc2c1)C(=O)N[C@H](Cc1ccc(Cl)cc1)C(=O)N[C@H](Cc1cccnc1)C(=O)N[C@@H](CO)C(=O)N[C@@H](Cc1ccc(NC(=O)[C@@H]2CC(=O)NC(=O)N2)cc1)C(=O)N[C@H](Cc1ccc(NC(N)=O)cc1)C(=O)N[C@@H](CC(C)C)C(=O)N[C@@H](CCCCNC(C)C)C(=O)N1CCC[C@H]1C(=O)N[C@H](C)C(N)=O [Degarelix] (Ac-[d2Nal][dPhe(4-Cl)][d3Pal]S[Phe(4-NH2)](Dihydroorotyl(S))[dPhe(4-NHCONH2)]L[Lys(iPr)]P[dA]-NH2)
Cholesterol-free media + simvastatin (0.04 μM) [1, 17]: 1.679
Complete Media [1, 18]: 1.609
Difference [1, 21]: −0.07
Difference [2, 22]: −0.81
Cholesterol-free [2, 6]: 1.673
Complete [2, 7]: 0.859

C=C1CC[C@@H]2[C@](C)(COC(=O)CCC(=O)O)[C@H](OC(=O)CCC(=O)O)CC[C@@]2(C)[C@@H]1/C=C/C1=CCOC1=O [Dehydroandrographolide succinate]
Cholesterol-free media + simvastatin (0.04 μM) [1, 26]: 0.8998
Complete Media [1, 27]: 1.004
Difference [1, 8]: 0.10
Difference [2, 22]: −1.21
Cholesterol-free [2, 6]: 2.195
Complete [2, 7]: 0.9855

C=C1CC[C@@H]2[C@](C)(CO)[C@H](O)CC[C@@]2(C)[C@@H]1/C=C/C1=CCOC1=O [Dehydroandrographolide]
Cholesterol-free media + simvastatin (0.04 μM) ([1]; NCI-H292 cells, FDA library drug in cholesterol-free media with simvastatin 0.04 μM): 1.79
Complete Media ([1]; NCI-H292 cells, FDA library drug in complete media): 1.432
Difference [1, 25]: −0.36
Difference [2, 22]: −0.24
Cholesterol-free [2, 9]: 0.9695
Complete ([2]; NCI-H292 cells, complete media): 0.7339

C[C@H](CCC(=O)O)[C@H]1CC[C@H]2[C@@H]3C(=O)C[C@@H]4CC(=O)CC[C@]4(C)[C@H]3CC(=O)[C@]12C [Dehydrocholic acid]
Cholesterol-free media + simvastatin (0.04 μM) [1, 14]: 0.8533
Complete Media [1, 15]: 0.9003
Difference [1, 5]: 0.05
Difference [2, 16]: −0.25
Cholesterol-free [2, 9]: 1.151
Complete ([2]; NCI-H292 cells, complete media): 0.9012

CNC[C@H](O)[C@@H](O)[C@H](O)[C@H](O)CO.Nc1nc(-n2cc(C(=O)O)c(=O)c3cc(F)c(N4CC(O)C4)c(Cl)c32)c(F)cc1F [Delafloxacin (meglumine)]
Cholesterol-free media + simvastatin (0.04 μM) [1, 28]: 1.156
Complete Media [1, 29]: 0.9953
Difference [1, 11]: −0.16
Cholesterol-free [2, 9]: 1.432
Complete ([2]; NCI-H292 cells, complete media): 1.009
Difference [2, 20]: −0.42

C[C@]1(COc2ccc(N3CCC(Oc4ccc(OC(F)(F)F)cc4)CC3)cc2)Cn2cc([N+](=O)[O-])nc2O1 [Delamanid]
Cholesterol-free media + simvastatin (0.04 μM) [1, 17]: 1.352
Complete Media [1, 18]: 1.345
Difference [1, 19]: −0.01
Difference [2, 16]: −0.22
Cholesterol-free [2, 9]: 1.106
Complete ([2]; NCI-H292 cells, complete media): 0.8827
